{"source": "patent US7632506B2", "about": "“Identification of new NY-ESO-1 epitopes recognized by CD4+ T-cells” (Ludwig Institute for Cancer Research, priority 2005, dated 2009)", "format_in_all_cases": "cell-based, human", "key": {"CD8+ T-cells": {"test_system": "CD8+ T-cells", "test": "ELISPOT of CD8+ T-cells presensitized with Ad2/ESO infected PBMC", "procedure": "To examine the possibility that one of the novel MHC class II epitopes described in this study may also represent an MHC class I binding peptide epitope, CD8^+ T-cells from the patients described above, were presensitized with autologous CD4^−/CD8^− PBMC infected with the recombinant adenovirus Ad2/ESO. Responder T-cells were tested in ELISPOT assays for recognition of autologous APC's pulsed with the 28 overlapping 18 mer peptides described in Table 2."}, "[1]": {"test_system": "CD4+ T cell clones NW2337-CD4-1 and NW2337-CD4-10", "test": "51Cr release assay with peptide-pulsed EBV-B target cells", "procedure": "In these experiments, exemplary clones NY-ESO-1 p49-66 specific CD4^+ T cell clone NW2337-CD4-1 and NY-ESO-1 p55-72 specific CD4^+ T cell clone NW2337-CD4-10 were characterized in ^51Chromium (^51Cr) release assays using peptides overlapping the sequence of each stimulation peptide. Standard ^51Cr release assay methods were used. Briefly, autologous EBV B cell target cells were labeled with 100 μCi Na2^51CrO4 for 2 hours, and pulsed with 18 mer or 20 mer NY-ESO-1 peptides (10 μg/ml) for 1 hour. Then, 1×10^3 target cells/well were incubated in 96 V- bottom microwell plates with effector cells at different E/T ratios for 4 h at 37° C. ^51Cr release was measured in the supernatant and the specific cytotoxicity was calculated using the standard methods. Polyclonal T-cell populations were preincubated with unlabeled K562 cells as competitors at a concentration of 40:1 in order to block non-specific effector reactions.\nThese experiments confirmed recognition of naturally presented NY-ESO-1 epitopes by the CD4+ T-cell clones."}, "CD4+ T cells": {"test_system": "CD4+ T cells", "test": "IFN-γ ELISPOT of CD4+ T cells presensitized with overlapping NY-ESO-1 18 mer peptides", "details": "patient NW2337, limiting dilution"}}}
{"substance": "P55-72: synthetic 18 mer peptide, amino acids 55-72 of NY-ESO-1 (GPGGGAPRGPHGGAASGL; UniProt P78358 55-72, looked up, fragment) [Peptide P55-72]", "values": [{"measurement": "NW1454 CD8+ T-cell recognition of peptide pulsed T2-A3 and HLA-A3 expressing NW115 EBV-B-cell target cells", "setting": "CD8+ T-cells", "value": "recognition"}, {"measurement": "recognition by CD8+ T-cells", "setting": "CD8+ T-cells; CD8+ T-cells from patient NW1231, NW1454 and NW2427, autologous APC's pulsed with peptide", "value": "observed"}, {"measurement": "HLA class I molecule presenting the peptide", "setting": "CD8+ T-cells; only shared HLA class I allele of the three patients", "value": "HLA-A3"}, {"measurement": "lysis of peptide pulsed autologous NW-2337-EBV B-cell lines by clones NW-2337-CD4-3 and -10", "setting": "[1]", "value": "efficiently lysed"}, {"measurement": "recognition by clone NW2337-CD4-1", "setting": "[1]; autologous EBV B cells pulsed with peptide 10 μg/ml, clone generated with p49-66", "value": "crossreacted"}, {"measurement": "recognition by clone NW2337-CD4-10", "setting": "[1]; autologous EBV B cells pulsed with peptide 10 μg/ml, clone generated with p55-72", "value": "recognized"}, {"measurement": "CD4+ T-cell clones generated by stimulation with peptide", "setting": "CD4+ T cells", "value": 53}]}
